Experiments:
Format in all cases: in vivo
Abutilon theophrasti = assay: Pre-emergence herbicidal action, ABUTH; set-up: key to Herbicidal action against ABUTH: % activity: 100 = plants have died, 0 = like control plants; settings: for herbicidal action ABUTH / herbicidal activity ABUTH: dosage 320 g/ha; for herbicidal activity ABUTH: scored visually after 3 weeks vs untreated controls (100% = plants have died); for Herbicidal action against ABUTH: comparative experiment
Method in brief: (§1)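 Percent damage, assessed visually after 3 weeks and referenced to untreated controls, reflects a pre-emergence treatment. Spray liquid equated to 600 to 800 l/ha with 0.2% wetting agent, applied to the covering soil over seeds in sandy loam.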

Stellaria media [1] = assay: Pre-emergence herbicidal action, STEME; set-up: key to Herbicidal action against STEME: % activity: 100 = plants have died, 0 = like control plants; settings: for herbicidal action STEME / herbicidal activity STEME: dosage 320 g/ha; for herbicidal activity STEME: scored visually after 3 weeks vs untreated controls (100% = plants have died); for Herbicidal action against STEME: comparative experiment
Method in brief: as §1

Veronica persica = assay: Pre-emergence herbicidal action, VERPE; set-up: key to Herbicidal action against VERPE: % activity: 100 = plants have died, 0 = like control plants; settings: for herbicidal action VERPE / herbicidal activity VERPE: dosage 320 g/ha; for herbicidal activity VERPE: scored visually after 3 weeks vs untreated controls (100% = plants have died); for Herbicidal action against VERPE: comparative experiment
Method in brief: as §1

Stellaria media [2] = assay: Post-emergence herbicidal action, STEME; set-up: key: % herbicidal action vs untreated; 100 = plants died, 0 = like control; settings: for Herbicidal action against STEME: comparative experiment
Method in brief: (§2)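 Sandy loam, greenhouse; one-leaf stage (2–3 wk after sowing); foliar spray of WP or EC, 600–800 l/ha water + 0.2% wetter; visual rating at ~3 wk vs untreated, % effect.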

Viola tricolor = assay: Post-emergence herbicidal action, VIOTR; set-up: key: % herbicidal action vs untreated; 100 = plants died, 0 = like control; settings: for Herbicidal action against VIOTR: comparative experiment
Method in brief: as §2

[3] = post-emergence, 20 g of a.i./ha

Row | Structure (SMILES) | herbicidal action ABUTH (Abutilon theophrasti) [%] | herbicidal action VERPE (Veronica persica) [%] | herbicidal action STEME (Stellaria media [2]; Dosage 80 g/ha) | herbicidal action VIOTR (Viola tricolor; Dosage 80 g/ha) | herbicidal activity ABUTH (Abutilon theophrasti) [%] | herbicidal activity STEME (Stellaria media [1]) [%] | herbicidal activity VERPE (Veronica persica) [%] | herbicidal action STEME (Stellaria media [2]; post-emergence, dosage 80 g/ha) [%] | herbicidal action VIOTR (Viola tricolor; post-emergence, dosage 80 g/ha) [%] | further results
1 | Cc1ccc(C(=O)Nc2nnnn2C)c(Cl)c1C[S+](C)[O-] (racemic) [Example 1-288] | 90 | 90 | 100 | 100 | – | – | – | – | – | herbicidal action STEME (Stellaria media [1]): 90%
2 | CC[S+]([O-])Cc1c(C(F)(F)F)ccc(C(=O)Nc2nnnn2C)c1Cl (racemic) [Example 1-300] | – | – | – | – | 100 | 100 | 100 | 100 | 100 | –
3 | Cn1nnnc1NC(=O)c1ccc(C(F)(F)F)c(C[S+]([O-])C2CC2)c1Cl (racemic) [Example 1-303] | – | – | – | – | 100 | 100 | 100 | 100 | 100 | –
4 | COCC[S+]([O-])Cc1c(C(F)(F)F)ccc(C(=O)Nc2nnnn2C)c1Cl (racemic) [Example 1-306] | – | – | 90 | 100 | 100 | 100 | 90 | – | – | –
5 | Cn1nnnc1NC(=O)c1ccc(C(F)(F)F)c(C[S+]([O-])CC(F)(F)F)c1Cl (racemic) [Example 1-312] | – | – | – | – | 100 | 100 | 100 | 100 | 100 | –
6 | Cn1nnnc1NC(=O)c1ccc(I)c(C[S+](C)[O-])c1Cl (racemic) [Example 1-363] | – | – | – | – | 100 | 100 | 100 | 100 | 100 | Herbicidal action against ABUTH (Abutilon theophrasti; 20 g of a.i./ha): 100; Herbicidal action against STEME (Stellaria media [1]; 20 g of a.i./ha): 100
7 | CC[S+]([O-])Cc1c(C(F)(F)F)ccc(C(=O)Nc2nnnn2C)c1Br (racemic) [Example 1-384] | – | – | – | – | 100 | 100 | 100 | 90 | 100 | Herbicidal action against ABUTH (Abutilon theophrasti; 80 g of a.i./ha): 100; Herbicidal action against STEME (Stellaria media [1]; 80 g of a.i./ha): 100; Herbicidal action against VIOTR (Viola tricolor; [3]): 100
8 | CSCc1c(C(F)(F)F)ccc(C(=O)Nc2nnnn2C)c1C [Example 1-83] | – | – | – | – | 100 | 100 | 100 | 100 | 90 | –
9 | CCS(=O)(=O)Cc1c(C(F)(F)F)ccc(C(=O)Nc2nnnn2C)c1C [Example 1-88] | 100 | 100 | 100 | 100 | – | – | – | – | – | –
10 | Cc1c(C(=O)Nc2nnnn2C)ccc(C(F)F)c1C[S+](C)[O-] (stereo not drawn) [Example 1-108] | 100 | 90 | 100 | 100 | – | – | – | – | – | –
11 | COc1c(C(=O)Nc2nnnn2C)ccc(C(F)(F)F)c1C[S+](C)[O-] (stereo not drawn) [Example 1-135] | 100 | 100 | 90 | 90 | – | – | – | – | – | herbicidal action STEME (Stellaria media [1]): 80%
12 | CSc1c(C(=O)Nc2nnnn2C)ccc(C(F)(F)F)c1C[S+](C)[O-] (stereo not drawn) [Example 1-162] | – | – | – | – | 100 | 100 | 90 | 100 | 100 | Herbicidal action against ABUTH (Abutilon theophrasti; 20 g of a.i./ha): 100
13 | CSc1c(C(=O)Nc2nnnn2C)ccc(C(F)F)c1C[S+](C)[O-] (stereo not drawn) [Example 1-171] | – | – | 100 | 90 | 100 | 100 | 100 | – | – | –
14 | CCSCc1c(C(F)(F)F)ccc(C(=O)Nc2nnnn2C)c1SCC [Example 1-182] | – | – | 100 | 100 | 100 | 90 | 100 | – | – | Herbicidal action against STEME (Stellaria media [1]; 20 g of a.i./ha): 90; Herbicidal action against VERPE (Veronica persica; 20 g of a.i./ha): 90; Herbicidal action against STEME (Stellaria media [2]; post-emergence, 5 g of a.i./ha): 90; Herbicidal action against VIOTR (Viola tricolor; post-emergence, 5 g of a.i./ha): 90
15 | CSCc1c(C)ccc(C(=O)Nc2nnnn2C)c1Cl [Example 1-287] | 100 | 100 | 100 | 100 | – | – | – | – | – | herbicidal action STEME (Stellaria media [1]): 90%
16 | CCSCc1c(C(F)(F)F)ccc(C(=O)Nc2nnnn2C)c1Cl [Example 1-299] | – | – | – | – | 100 | 100 | 100 | 100 | 100 | Herbicidal action against ABUTH (Abutilon theophrasti; 20 g of a.i./ha): 90; Herbicidal action against VERPE (Veronica persica; 20 g of a.i./ha): 100; Herbicidal action against STEME (Stellaria media [2]; post-emergence, 5 g of a.i./ha): 100

Row | Structure (SMILES) | herbicidal action ABUTH (Abutilon theophrasti) [%] | herbicidal action VERPE (Veronica persica) [%] | herbicidal action STEME (Stellaria media [2]; Dosage 80 g/ha) | herbicidal action VIOTR (Viola tricolor; Dosage 80 g/ha) | herbicidal activity ABUTH (Abutilon theophrasti) [%] | herbicidal activity STEME (Stellaria media [1]) [%] | herbicidal activity VERPE (Veronica persica) [%] | herbicidal action STEME (Stellaria media [2]; post-emergence, dosage 80 g/ha) [%] | herbicidal action VIOTR (Viola tricolor; post-emergence, dosage 80 g/ha) [%] | further results
17 | Cn1nnnc1NC(=O)c1ccc(C(F)(F)F)c(CSC2CC2)c1Cl [Example 1-302] | – | – | – | – | 100 | 100 | 100 | 100 | 100 | –
18 | Cn1nnnc1NC(=O)c1ccc(C(F)(F)F)c(CS(=O)(=O)C2CC2)c1Cl [Example 1-304] | – | – | – | – | 100 | 100 | 100 | 100 | 100 | –
19 | COCCSCc1c(C(F)(F)F)ccc(C(=O)Nc2nnnn2C)c1Cl [Example 1-305] | – | – | – | – | 100 | 100 | 100 | 100 | 100 | –
20 | Cn1nnnc1NC(=O)c1ccc(C(F)(F)F)c(CSCC(F)(F)F)c1Cl [Example 1-311] | – | – | 100 | 100 | 100 | 100 | 100 | – | – | –
21 | Cn1nnnc1NC(=O)c1ccc(C(F)(F)F)c(CSCC2CC2)c1Cl [Example 1-314] | – | – | – | – | 100 | 90 | 100 | 100 | 100 | –
22 | Cn1nnnc1NC(=O)c1ccc(C(F)(F)F)c(CS(=O)(=O)CC2CC2)c1Cl [Example 1-316] | – | – | 100 | 100 | 100 | 100 | 100 | – | – | –
23 | CSCc1c(C(F)F)ccc(C(=O)Nc2nnnn2C)c1Cl [Example 1-320] | – | – | 100 | 100 | 100 | 90 | 100 | – | – | Herbicidal action against ABUTH (Abutilon theophrasti; 20 g of a.i./ha): 90; Herbicidal action against STEME (Stellaria media [1]; 20 g of a.i./ha): 90; Herbicidal action against STEME (Stellaria media [2]; post-emergence, 5 g of a.i./ha): 100
24 | CCSCc1c(C(F)(F)F)ccc(C(=O)Nc2nnnn2CC)c1C [Example 2-86] | 100 | 100 | – | – | – | – | – | 100 | 100 | –
25 | CCn1nnnc1NC(=O)c1ccc(C(F)(F)F)c(CS(=O)(=O)CC)c1C [Example 2-88] | 100 | 100 | 100 | 100 | – | – | – | – | – | –
26 | CCn1nnnc1NC(=O)c1ccc(C(F)F)c(C[S+](C)[O-])c1C (stereo not drawn) [Example 2-108] | 100 | 100 | 100 | 100 | – | – | – | – | – | –
27 | CCCn1nnnc1NC(=O)c1ccc(S(C)(=O)=O)c(CS(C)(=O)=O)c1C [Example 3-39] | 100 | 100 | 90 | 100 | – | – | – | – | – | –
28 | CCCn1nnnc1NC(=O)c1ccc(C(F)(F)F)c(CSCC)c1C [Example 3-86] | 100 | 100 | 100 | 100 | – | – | – | – | – | –
29 | CCCn1nnnc1NC(=O)c1ccc(C(F)(F)F)c(C[S+](C)[O-])c1OC (stereo not drawn) [Example 3-135] | 100 | – | 100 | 100 | – | – | – | – | – | herbicidal action STEME (Stellaria media [1]): 100%
30 | CCCn1nnnc1NC(=O)c1ccc(C(F)F)c(CS(C)(=O)=O)c1Cl [Example 3-322] | – | – | 100 | – | 100 | 100 | 100 | – | – | –
31 | CCCn1nnnc1NC(=O)c1ccc(C(F)F)c(CS(=O)(=O)CC)c1Cl [Example 3-325] | – | – | 100 | 100 | 100 | 100 | – | – | – | –
32 | CCS(=O)(=O)c1c(C(F)(F)F)ccc(C(=O)Nc2nnnn2C)c1Br [Example V-13, 2-bromo-3-(ethylsulfonyl)-N-(1-methyl-1-1H-tetrazol-5-yl)-4-(trifluoromethyl)benzamide, reference compound] | – | – | – | – | – | – | – | – | – | Herbicidal action against ABUTH (Abutilon theophrasti; 80 g of a.i./ha): 0; Herbicidal action against VERPE (Veronica persica; 80 g of a.i./ha): 0; Herbicidal action against STEME (Stellaria media [2]; [3]): 0; Herbicidal action against VIOTR (Viola tricolor; [3]): 0
